Experimental data taken from patent US11247970B2, “Selective inhibition of gluconeogenic activity” (Dana-Farber Cancer Institute, Inc., priority 2017, dated 2022).
Entries after “also recorded” stand apart in the source; their conditions may differ.

Legend:
[1] = biological target: T1, PGC-1α (Mus musculus, UniProt O70343); test: Mass spectrometry of acetylated PGC-1α lysine residues; assay type: cell-based; parameters: expressed in transfected cells; host or cells: U-2 OS cells infected with Ad-PGC-1α and Ad-GCN5; settings: U-2 OS, Ad-PGC-1α and Ad-GCN5, 18 h
T1 sequence (O70343 1-797): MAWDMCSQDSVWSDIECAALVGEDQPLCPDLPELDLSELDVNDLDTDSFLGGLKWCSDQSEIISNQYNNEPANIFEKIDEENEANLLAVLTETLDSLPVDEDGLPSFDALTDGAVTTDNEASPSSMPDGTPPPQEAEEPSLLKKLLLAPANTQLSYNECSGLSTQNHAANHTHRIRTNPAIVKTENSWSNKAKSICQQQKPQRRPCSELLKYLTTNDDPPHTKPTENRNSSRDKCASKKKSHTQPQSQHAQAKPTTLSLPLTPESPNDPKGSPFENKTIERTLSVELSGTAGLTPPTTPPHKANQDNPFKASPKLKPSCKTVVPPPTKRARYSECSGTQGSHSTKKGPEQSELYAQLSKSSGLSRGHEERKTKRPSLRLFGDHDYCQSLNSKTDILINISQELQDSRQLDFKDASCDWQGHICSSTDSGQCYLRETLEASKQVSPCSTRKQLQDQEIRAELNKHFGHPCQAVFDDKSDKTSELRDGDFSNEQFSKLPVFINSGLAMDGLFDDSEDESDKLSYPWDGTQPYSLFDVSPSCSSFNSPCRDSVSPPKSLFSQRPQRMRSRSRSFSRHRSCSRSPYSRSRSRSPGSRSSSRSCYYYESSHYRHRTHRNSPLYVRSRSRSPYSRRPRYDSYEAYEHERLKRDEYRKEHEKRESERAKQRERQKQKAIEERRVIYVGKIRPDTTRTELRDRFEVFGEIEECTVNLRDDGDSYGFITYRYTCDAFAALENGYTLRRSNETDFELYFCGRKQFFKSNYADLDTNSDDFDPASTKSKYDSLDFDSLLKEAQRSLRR
Method: Gel bands were dehydrated with acetonitrile, dried and resuspended in 50 mM ammonium bicarbonate (pH 8.0) containing 500 ng of sequencing-grade trypsin (Promega) and incubated at 37° C. for 8 hours. Digested samples were then loaded onto StageTips and desalted. Peptides were eluted with 50% acetonitrile, 5% formic acid, dried using a Speed-Vac apparatus, and resuspended in 25 μl of HEPES, pH 8.5. Peptides were labeled with 6-plex tandem mass tag (TMT) reagents (Thermo Scientific, Rockford, Ill.). After 1 hour of incubation at room temperature, the reaction was quenched with hydroxylamine and acidification with formic acid to pH˜2. TMT labeled peptides were combined, desalted by StageTips, dried and resuspended in 10 μl of 1% formic acid. All spectra were acquired using an Oribtrap Fusion mass spectrometer (Thermo Scientific) in line with an Easy-nLC 1200 (Thermo Fisher Scientific) ultra-high pressure liquid chromatography (UHPLC) pump. […] For MS3 based TMT quantitation, MS2 spectra were collected at an AGC of 4000, max injection time of 150 ms, and CID collision energy set at 35%. […] For quantification, a 0.03 m/z window centered on the theoretical DA value of each reporter ion was utilized for the nearest maximal signal intensity. […]

[2] = Liver and serum lipids, metabolites and liver gene expression in treated HFD mice; assay type: in vivo
Method: Total RNA was extracted from cells or pulverized liver using TRIzol reagent (Ambion, Life Technologies), followed by cDNA preparation from 2 μg of total RNA with a High-Capacity cDNA Reverse Transcription Kit (Applied Biosystems). cDNA products were quantified by real-time PCR using Power SYBR Green PCR Master Mix (Applied Biosystems) on a CFX384 Real-Time PCR System (Bio-Rad). To calculate IC50 from C-80 dose response, curves were fit to the hill equation in a similar manner used to calculate estimated AC50 from the high-throughput qPCR screen. However, unlike the curves from the qPCR high-throughput screen, values of relative repression were used rather than of delta-Ct.
Serum samples were gathered from blood collected by cardiac puncture. Insulin was measured with Ultra Sensitive Mouse Insulin ELISA Kit (Crystal Chem, 90080). Kits used to measure alanine transaminase (EALT-100), aspartate transaminase (EASTR-100), lactate dehydrogenase (DLDH-100) were purchased from Bioassay Systems. Kits used to measure lactate (MAK 064), b-hydroxybutyrate (MAK 041), Triglycerides (TR0100) were purchased from Sigma. Kit used to measure cholesterol (C7510) was purchased from Pointe Scientific. Kit used to measure non-esterified fatty acids was purchased from Wako.

For `Cc1ccc(CN(CC(O)COc2cccc3[nH]ccc23)C(C)(C)C)cc1` (centres unmarked) [SR-18292, 1-((1H-indol-4-yl)oxy)-3-(tert-butyl(4-methylbenzyl)amino)propan-2-ol], the “number of PGC-1α lysine residues with increased acetylation” value [1] was 7, the “serum lactate and ketone bodies (β-hydroxybutyrate)” value ([2]; HFD 4 weeks) was “not changed; also recorded: not altered” and the “serum levels of TG, free fatty acids and cholesterol” value ([2]; HFD 13 weeks) was “not significantly altered”. The “transcriptional lipid metabolic profile in liver” value ([2]; HFD 13 weeks) was “not significantly altered; also recorded: not changed” and the “liver TG and cholesterol levels” value ([2]; HFD 17 weeks, also after prolonged treatment) was “not changed”.
